System: IL-1β production in PMA-differentiated THP-1 cells
Experiment: IL-1β production in PMA-differentiated THP-1 cells stimulated with gramicidin (hTHP-1 assay containing 2% fetal bovine serum; Procedures 1-3)
Format: cell-based, human
Settings: Homo sapiens, THP-1, hTHP-1 assay containing 2% fetal bovine serum; class symbols; read-out: hTHP-1 IC50 (Average IC50 of compounds in hTHP-1 assay)
Experimental: The following protocol is suitable for testing the activity of the compounds disclosed herein.
Procedure 1: IL-1β Production in PMA-Differentiated THP-1 Cells Stimulated with Gramicidin
THP-1 cells were purchased from the American Type Culture Collection and sub-cultured according to instructions from the supplier. Cells were cultured in complete RPMI 1640 (containing 10% heat inactivated FBS, penicillin (100 units/ml) and streptomycin (100 μg/ml)), and maintained in log phase prior to experimental setup. Prior to the experiment, compounds were dissolved in dimethyl sulfoxide (DMSO) to generate a 30 mM stock. The compound stock was first pre-diluted in DMSO to 3, 0.34, 0.042 and 0.0083 mM intermediate concentrations and subsequently spotted using Echo550 liquid handler into an empty 384-well assay plate to achieve desired final concentration (e.g. 100, 33, 11, 3.7, 1.2, 0.41, 0.14, 0.046, 0.015, 0.0051, 0.0017 μM). DMSO was backfilled in the plate to achieve a final DMSO assay concentration of 0.37%. The plate was then sealed and stored at room temperature until required.
THP-1 cells were treated with PMA (Phorbol 12-myristate 13-acetate) (20 ng/ml) for 16-18 hours. On the day of the experiment the media was removed and adherent cells were detached with trypsin for 5 minutes. Cells were then harvested, washed with complete RPMI 1640, spun down, and resuspended in RPMI 1640 (containing 2% heat inactivated FBS, penicillin (100 units/ml) and streptomycin (100 μg/ml). The cells were plated in the 384-well assay plate containing the spotted compounds at a density of 50,000 cells/well (final assay volume 50 μl). Cells were incubated with compounds for 1 hour and then stimulated with gramicidin (5 μM) (Enzo) for 2 hours. Plates were then centrifuged at 340 g for 5 min. Cell free supernatant (40 μL) was collected using a 96-channel PlateMaster (Gilson) and the production of IL-1β was evaluated by HTRF (cisbio). The plates were incubated for 18 h at 4° C. and read using the preset HTRF program (donor emission at 620 nm, acceptor emission at 668 nm) of the SpectraMax i3x spectrophotometer (Molecular Devices, software SoftMax 6). A vehicle only control and a dose titration of CRID3 (100-0.0017 μM) were run concurrently with each experiment.
Procedure 2: IL-1β Production in PMA-Differentiated THP-1 Cells Stimulated with Gramicidin
THP-1 cells were purchased from the American Type Culture Collection and sub-cultured according to instructions from the supplier. Prior to experiments, cells were cultured in complete RPMI 1640 (containing 10% heat inactivated FBS, penicillin (100 units/ml) and streptomycin (100 μg/ml)), and maintained in log phase prior to experimental setup. Prior to the experiment THP-1 were treated with PMA (Phorbol 12-myristate 13-acetate) (20 ng/ml) for 16-18 hours. Compounds were dissolved in dimethyl sulfoxide (DMSO) to generate a 30 mM stock. On the day of the experiment the media was removed and adherent cells were detached with trypsin for 5 minutes. Cells were then harvested, washed with complete RPMI 1640, spun down, resuspended in RPMI 1640 (containing 2% heat inactivated FBS, penicillin (100 units/ml) and streptomycin (100 μg/ml). The cells were plated in a 384-well plate at a density of 50,000 cells/well (final assay volume 50 μl). Compounds were first dissolved in assay medium to obtain a 5× top concentration of 500 μM. 10 step dilutions (1:3) were then undertaken in assay medium containing 1.67% DMSO. 5× compound solutions were added to the culture medium to achieve desired final concentration (e.g. 100, 33, 11, 3.7, 1.2, 0.41, 0.14, 0.046, 0.015, 0.0051, 0.0017 μM). Final DMSO concentration was at 0.37%. Cells were incubated with compounds for 1 hour and then stimulated with gramicidin (5 μM) (Enzo) for 2 hours. Plates were then centrifuged at 340 g for 5 min. Cell free supernatant (40 μL) was collected using a 96-channel PlateMaster (Gilson) and the production of IL-1β was evaluated by HTRF (cisbio). […]

Row | IC50 [µM] | Compound
1 | 5 to 30 | CC(C)c1ccc(F)c(C(C)C)c1CC(=O)N=S(N)(=O)c1ccc2c(cnn2C)c1 (single isomer, unassigned) [Example 198, (R) or (S)-N-(amino(1-methyl-1H-indazol-5-yl)(oxo)-λ^6-sulfaneylidene)-2-(3-fluoro-2,6-diisopropylphenyl)acetamide]
2 | 1 to 5 | CC(C)c1ccc(F)c(C(C)C)c1CC(=O)N=S(N)(=O)c1ccc(CN(C)C)cn1 (single isomer, unassigned) [Example 200, (R) or (S)-N-(amino(5-((dimethylamino)methyl)pyridin-2-yl)(oxo)-λ^6-sulfaneylidene)-2-(3-fluoro-2,6-diisopropylphenyl)acetamide]
3 | 1 to 5 | CC(C)c1ncc(F)c(C(C)C)c1CC(=O)N=S(N)(=O)c1ncc(C(C)(C)O)s1 (single isomer, unassigned) [Example 204, N-(amino(5-(2-hydroxypropan-2-yl)thiazol-2-yl)(oxo)-λ^6-sulfaneylidene)-2-(5-fluoro-2,4-diisopropylpyridin-3-yl)acetamide]
4 | 0.2 to 1 | CC(C)c1ncc(F)c(C(C)C)c1CC(=O)N=S(N)(=O)c1nc(C(C)(C)O)cs1 (single isomer, unassigned) [Example 206, N-(amino(4-(2-hydroxypropan-2-yl)thiazol-2-yl)(oxo)-λ^6-sulfaneylidene)-2-(5-fluoro-2,4-diisopropylpyridin-3-yl)acetamide]
5 | 1 to 5 | CC(C)c1cc2c(c(C(C)C)c1CC(=O)N=S(N)(=O)c1cnc(C(C)(C)O)s1)CCC2 (single isomer, unassigned) [Example 213, (S) or (R)-N-(amino(2-(2-hydroxypropan-2-yl)thiazol-5-yl)(oxo)-λ^6-sulfaneylidene)-2-(4,6-diisopropyl-2,3-dihydro-1H-inden-5-yl)acetamide]
6 | 5 to 30 | CC(C)c1cc2c(c(C(C)C)c1CC(=O)N=S(N)(=O)c1ccn(C(C)C)n1)COC2 (single isomer, unassigned) [Example 218, (R) or (S)-N-(amino(1-isopropyl-1H-pyrazol-3-yl)(oxo)-λ^6-sulfaneylidene)-2-(4,6-diisopropyl-1,3-dihydroisobenzofuran-5-yl)acetamide]
7 | 5 to 30 | CC(C)(O)c1ncc([S@@](N)(=O)=NC(=O)Cc2cc3c(c4c2CCC4)CCC3)s1 [Compound 259a]
8 | 5 to 30 | CC(C)(O)c1ncc([S@](N)(=O)=NC(=O)Cn2c3ccccc3c3ccccc32)s1 [Compound 262b]
9 | 5 to 30 | CC(C)(O)c1cnc(S(N)(=O)=NC(=O)Cc2c3c(cc4c2CCC4)CCC3)s1 (stereo not drawn) [Example 4, 2-(1,2,3,5,6,7-Hexahydro-s-indacen-4-yl)-N-(5-(2-hydroxypropan-2-yl)thiazol-2-ylsulfonimidoyl)acetamide]
10 | 0.2 to 1 | CC(C)c1cc(F)cc(C(C)C)c1CC(=O)N=S(N)(=O)c1ncc(C(C)(C)O)s1 (stereo not drawn) [Example 7, 2-(4-Fluoro-2,6-diisopropylphenyl)-N-(5-(2-hydroxypropan-2-yl)thiazole-2-sulfonimidoyl)acetamide]
11 | 5 to 30 | CC(C)c1cc(F)cc(C(C)C)c1CC(=O)N=S(=O)(NC(=O)Cc1c(C(C)C)cc(F)cc1C(C)C)c1ncc(C(C)(C)O)s1 (stereo not drawn) [Example 10, N,N-(5-(2-hydroxypropan-2-yl)thiazol-2-ylsulfinyl)bis(2-(4-fluoro-2,6-diisopropylphenyl)acetamide)]
12 | 5 to 30 | CNS(=O)(=NC(=O)Cc1c(C(C)C)cc(F)cc1C(C)C)c1ncc(C(C)(C)O)s1 (stereo not drawn) [Example 11, 2-(4-Fluoro-2,6-diisopropylphenyl)-N-(5-(2-hydroxypropan-2-yl)-N-methylthiazole-2-sulfonimidoyl)acetamide]

Same assay, conditions: Homo sapiens, THP-1, hTHP-1 assay containing 2% fetal bovine serum; given as numeric bound; read-out: hTHP-1 IC50 (Average IC50 of compounds in hTHP-1 assay)

Row | IC50 [µM] | Compound
13 | > 30 | CC(C)c1ccc(F)c(C(C)C)c1CC(=O)N=S(N)(=O)c1ccc2c(cnn2C)c1 (single isomer, unassigned) [Example 199, (S) or (R)-N-(amino(1-methyl-1H-indazol-5-yl)(oxo)-λ^6-sulfaneylidene)-2-(3-fluoro-2,6-diisopropylphenyl)acetamide]
14 | > 30 | CC(C)c1ccc(F)c(C(C)C)c1CC(=O)N=S(N)(=O)c1ccc(CN(C)C)cn1 (single isomer, unassigned) [Example 201, (S) or (R)-N-(amino(5-((dimethylamino)methyl)pyridin-2-yl)(oxo)-λ^6-sulfaneylidene)-2-(3-fluoro-2,6-diisopropylphenyl)acetamide]
15 | > 30 | CC(C)c1ncc(F)c(C(C)C)c1CC(=O)N=S(N)(=O)c1ncc(C(C)(C)O)s1 (single isomer, unassigned) [Example 205, (S) or (R)-N-(amino(5-(2-hydroxypropan-2-yl)thiazol-2-yl)(oxo)-λ^6-sulfaneylidene)-2-(5-fluoro-2,4-diisopropylpyridin-3-yl)acetamide]
16 | > 30 | CC(C)c1ncc(F)c(C(C)C)c1CC(=O)N=S(N)(=O)c1nc(C(C)(C)O)cs1 (single isomer, unassigned) [Example 207, (S) or (R)-N-(amino(4-(2-hydroxypropan-2-yl)thiazol-2-yl)(oxo)-λ^6-sulfaneylidene)-2-(5-fluoro-2,4-diisopropylpyridin-3-yl)acetamide]
17 | > 30 | CC(C)c1cc2c(c(C(C)C)c1CC(=O)N=S(N)(=O)c1cnc(C(C)(C)O)s1)CCC2 (single isomer, unassigned) [Example 212, (R) or (S)-N-(amino(2-(2-hydroxypropan-2-yl)thiazol-5-yl)(oxo)-λ^6-sulfaneylidene)-2-(4,6-diisopropyl-2,3-dihydro-1H-inden-5-yl)acetamide]
18 | > 30 | CC(C)c1cc2c(c(C(C)C)c1CC(=O)N=S(N)(=O)c1ccn(C(C)C)n1)COC2 (single isomer, unassigned) [Example 219, (S) or (R)-N-(amino(1-isopropyl-1H-pyrazol-3-yl)(oxo)-λ^6-sulfaneylidene)-2-(4,6-diisopropyl-1,3-dihydroisobenzofuran-5-yl)acetamide]
19 | > 17 | CC(C)(O)c1ncc(S(N)(=O)=NC(=O)Cc2cc3c(c4c2CCC4)CCC3)s1 (stereo not drawn) [Compound 259]
20 | > 30 | CC(C)(O)c1ncc([S@](N)(=O)=NC(=O)Cc2cc3c(c4c2CCC4)CCC3)s1 [Compound 259b]
21 | > 30 | CC(C)(O)c1ncc([S@@](N)(=O)=NC(=O)Cn2c3ccccc3c3ccccc32)s1 [Compound 262a]

Same assay, conditions: hTHP-1 assay containing 2% fetal bovine serum; class symbols; read-out: hTHP-1 IC50 (Average IC50 of compounds in hTHP-1 assay)

Row | IC50 [µM] | Compound
22 | 0.2 to 1 | CC(C)c1nc(-c2cccc(C(F)(F)F)c2)c(F)c(C(C)C)c1CC(=O)N=S(N)(=O)c1cnc(C(C)(C)O)s1 (single isomer, unassigned) [Example 202, N-(amino(2-(2-hydroxypropan-2-yl)thiazol-5-yl)(oxo)-λ^6-sulfaneylidene)-2-(5-fluoro-2,4-diisopropyl-6-(3-(trifluoromethyl)phenyl)pyridin-3-yl)acetamide]
23 | 0.2 to 1 | CC(C)c1ncc(F)c(C(C)C)c1CC(=O)N=S(N)(=O)c1sc(C(C)(C)O)cc1F (single isomer, unassigned) [Example 211, N-(amino(3-fluoro-5-(2-hydroxypropan-2-yl)thiophen-2-yl)(oxo)-λ^6-sulfaneylidene)-2-(5-fluoro-2,4-diisopropylpyridin-3-yl)acetamide]
24 | 5 to 30 | CC(C)c1cc(F)cc(C(C)C)c1CC(=O)N=S(N)(=O)c1ccc(C(C)(C)O)cc1 (stereo not drawn) [Compound 131]

Reference: patent US11370763B2, “Compounds and compositions for treating conditions associated with NLRP activity” (Novartis AG, priority 2017, dated 2022)
